{"source": "patent US9212168B2", "about": "(priority 2011, dated 2015)"}
{"system": "HCV genotype 1a replicon", "experiment": "HCV genotype 1a replicon assay (NS3 protease activity readout)", "format": "cell-based, hepatitis C virus", "details": "HCV genotype 1a replicon", "how_it_was_run": "(§1)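 EC50 values came from a 4-parameter robust fit of fluorescence (ex 340, em 509 nm) produced by NS3-specific protease in lysates, assayed with 15 μM FRET substrate for 20 min at 37° C, after 48 or 72 hours of compound exposure (0.5% DMSO) of Huh7.5-derived APC89 genotype 1a replicon cells.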"}
{"smiles": "COC(=O)NC(C(=O)N1CC(C)CC1c1nc(-c2ccc(-c3ccc(NC(=O)c4ccc(N5CCN(C(=O)C(C)(C)CO)CC5C)nc4)cc3OC(F)(F)F)cc2)c[nH]1)C1CCOCC1", "note": "(stereo not drawn) [Example 13-32]", "Genotype 1a": "D (D represents pEC50>10 (EC50<0.1 nM))"}
{"smiles": "COC(=O)N[C@H](C(=O)N1C[C@@H](C)C[C@H]1c1nc(-c2ccc(-c3cc(Cl)c(NC(=O)c4ccc(N5CCN(C(=O)C(C)(C)CO)C(CO)C5)nc4)cc3OC(F)(F)F)cc2)c[nH]1)C(C)C", "note": "(stereo partly drawn) [Example 14-3]", "Genotype 1a": "C (C represents pEC50 between and 9 and about 10, (EC50 between 1 nM and 0.1 nM))"}
{"smiles": "COC(=O)N[C@H](C(=O)N1C[C@@H](C)C[C@H]1c1nc(-c2ccc(-c3cc(Cl)c(NC(=O)c4ccc(N5CCN(C(=O)C(C)(C)CO)C(CO)C5)nc4)cc3OC(F)(F)F)cc2)c[nH]1)C(C)C", "note": "(stereo partly drawn) [Example 14-4]", "Genotype 1a": "B (B represents pEC50 between 8 and 9 (EC50 between 1 and 10 nM))"}
{"smiles": "COC(=O)N[C@H](C(=O)N1C[C@@H](N2CCOCC2)C[C@H]1c1nc(-c2ccc(-c3cc(Cl)c(NC(=O)c4ccc(N5CCN(C(=O)[C@H]6CC6(C)C)C[C@H]5C)nc4)cc3OC(F)(F)F)cc2)c[nH]1)C(C)C", "note": "[Example 15-4]", "Genotype 1a": "D (D represents pEC50>10 (EC50<0.1 nM))"}
{"smiles": "COC(=O)NC(C(=O)N1CC(OC)CC1c1nc(-c2ccc(-c3cc(F)c(NC(=O)c4ccc(N5CCN(C(=O)C(C)(C)C)CC5C)nc4)cc3OC(F)(F)F)cc2)c[nH]1)C(C)(C)O", "note": "(stereo not drawn) [Example 16-6]", "Genotype 1a": "D (D represents pEC50>10 (EC50<0.1 nM))"}
{"smiles": "COC(=O)NC(C(=O)N1CC(OC)CC1c1nc(-c2ccc(-c3cc(Cl)c(NC(=O)c4ccc(N5CCN(C(=O)C(C)(C)CO)CC5C)nc4)cc3OC(F)(F)F)cc2)c[nH]1)C(C)OC", "note": "(stereo not drawn) [Example 16-8]", "Genotype 1a": "D (D represents pEC50>10 (EC50<0.1 nM))"}
{"smiles": "COC(=O)NC(C(=O)N1CC(OC)CC1c1nc(-c2ccc(-c3cc(Cl)c(NC(=O)c4ccc(N5CCN(C(=O)C(C)(C)CO)CC5C)nc4)cc3OC(F)(F)F)cc2)c[nH]1)C(C)(C)O", "note": "(stereo not drawn) [Example 16-9]", "Genotype 1a": "D (D represents pEC50>10 (EC50<0.1 nM))"}
{"smiles": "COC(=O)NC(C(=O)N1CC(OC)CC1c1nc(-c2ccc(-c3ccc(NC(=O)c4ccc(N5CCN(C(=O)C(C)(C)C)CC5C)nc4)cc3OC(F)(F)F)cc2)c[nH]1)C(C)O", "note": "(stereo not drawn) [Example 16-10]", "Genotype 1a": "C (C represents pEC50 between and 9 and about 10, (EC50 between 1 nM and 0.1 nM))"}
{"smiles": "COC(=O)NC(C(=O)N1CC(OC)CC1c1nc(-c2ccc(-c3ccc(NC(=O)c4ccc(N5CCN(C(=O)C(C)(C)C)CC5C)nc4)cc3OC(F)(F)F)cc2)c[nH]1)C(C)OC", "note": "(stereo not drawn) [Example 16-11]", "Genotype 1a": "D (D represents pEC50>10 (EC50<0.1 nM))"}
{"system": "HCV genotype 1a replicon", "experiment": "HCV genotype 1a replicon assay (NS3 protease activity readout)", "format": "cell-based, hepatitis C virus", "details": "Hepatitis C virus, read-out: Genotype 1a, HCV genotype 1a replicon", "how_it_was_run": "as §1", "units": {"EC50": "nM"}}
{"smiles": "COC(=O)N[C@H](C(=O)N1C[C@@H](C)C[C@H]1c1nc(-c2ccc(-c3cc(F)c(NC(=O)c4ccc(N5CCN(C(=O)C(C)(C)CO)C[C@H]5C)nc4)cc3OC(F)(F)F)cc2)c[nH]1)[C@H](C)O", "note": "[Example 13-26]", "EC50": "< 0.1"}
{"smiles": "COC(=O)N[C@@H](CCCCN)C(=O)N1C[C@@H](C)C[C@H]1c1nc(-c2ccc(-c3cc(Cl)c(NC(=O)c4ccc(N5CCN(C(=O)C(C)(C)C)C[C@H]5C)nc4)cc3OC(F)(F)F)cc2)c[nH]1", "note": "[Example 13-33]", "EC50": "< 0.1"}
{"smiles": "COC(=O)NC(C(=O)N1C[C@@H](C)C[C@H]1c1nc(-c2ccc(-c3cc(Cl)c(NC(=O)c4ccc(N5CCN(C(=O)C(C)(C)C)C[C@H]5C)nc4)cc3OC(F)(F)F)cc2)c[nH]1)C1CCS(=O)(=O)CC1", "note": "(stereo partly drawn) [Example 13-36]", "EC50": "1 to 10"}
{"smiles": "COC(=O)N[C@H](C(=O)N1C[C@@H](C)C[C@H]1c1nc(-c2ccc(-c3cc(Cl)c(NC(=O)c4ccc(N5CCN(C(=O)C(C)(C)C)C[C@H]5C)nc4)cc3OC(F)(F)F)cc2)c[nH]1)C1CCCCC1", "note": "[Example 13-39]", "EC50": "1 to 10"}
{"smiles": "COC(=O)N[C@@H](C(=O)N1C[C@@H](C)C[C@H]1c1nc(-c2ccc(-c3cc(Cl)c(NC(=O)c4ccc(N5CCN(C(=O)C(C)(C)C)C[C@H]5C)nc4)cc3OC(F)(F)F)cc2)c[nH]1)C1CCCCC1", "note": "[Example 13-40]", "EC50": "10 to 1000"}
{"smiles": "COC(=O)N[C@H](C(=O)N1C[C@@H](C)C[C@H]1c1nc(-c2ccc(-c3cc(Cl)c(NC(=O)c4ccc(N5CCN(C(=O)C(C)(C)C)C[C@H]5C)nc4)cc3OC(F)(F)F)cc2)c[nH]1)C1CCCC1", "note": "[Example 13-41]", "EC50": "< 0.1"}
{"smiles": "COC(=O)N[C@@H](C(=O)N1C[C@@H](C)C[C@H]1c1nc(-c2ccc(-c3cc(Cl)c(NC(=O)c4ccc(N5CCN(C(=O)C(C)(C)C)C[C@H]5C)nc4)cc3OC(F)(F)F)cc2)c[nH]1)C1C[C@@H](C)O[C@@H](C)C1", "note": "(stereo partly drawn) [Example 13-43]", "EC50": "1 to 10"}
{"smiles": "COC(=O)NC(C(=O)N1C[C@@H](C)C[C@H]1c1nc(-c2ccc(-c3cc(Cl)c(NC(=O)c4ccc(N5CCN(C(=O)C(C)(C)C)C[C@H]5C)nc4)cc3OC(F)(F)F)cc2)c[nH]1)C1COC1", "note": "(stereo partly drawn) [Example 13-44]", "EC50": "0.1 to 1"}
{"smiles": "COC(=O)N(C)[C@H](C(=O)N1C[C@@H](C)C[C@H]1c1nc(-c2ccc(-c3cc(Cl)c(NC(=O)c4ccc(N5CCN(C(=O)C(C)(C)CO)C[C@H]5C)nc4)cc3OC(F)(F)F)cc2)c[nH]1)C(C)C", "note": "[Example 13-45]", "EC50": "0.1 to 1"}
{"smiles": "COC(=O)N[C@H](C(=O)N1C[C@@H](C)C[C@H]1c1nc(-c2ccc(-c3cc(Cl)c(NC(=O)c4ccc(N5CCN(C(=O)C(C)(C)C)C(CO)C5)nc4)cc3OC(F)(F)F)cc2)c[nH]1)C(C)C", "note": "(stereo partly drawn) [Example 14-1]", "EC50": "0.1 to 1"}
{"smiles": "COCCO[C@H]1C[C@@H](c2nc(-c3ccc(-c4cc(Cl)c(NC(=O)c5ccc(N6CCN(C(=O)C(C)(C)C)C[C@H]6C)nc5)cc4OC(F)(F)F)cc3)c[nH]2)N(C(=O)[C@@H](NC(=O)OC)C(C)C)C1", "note": "[Example 15-1]", "EC50": "0.1 to 1"}
{"smiles": "COC(=O)N[C@H](C(=O)N1C[C@@H](Oc2ccn(C)n2)C[C@H]1c1nc(-c2ccc(-c3cc(Cl)c(NC(=O)c4ccc(N5CCN(C(=O)C(C)(C)C)C[C@H]5C)nc4)cc3OC(F)(F)F)cc2)c[nH]1)C(C)C", "note": "[Example 15-2]", "EC50": "0.1 to 1"}
{"smiles": "COC(=O)N[C@H](C(=O)N1C[C@@H](N2CCOCC2)C[C@H]1c1nc(-c2ccc(-c3cc(Cl)c(NC(=O)c4ccc(N5CCN(C(=O)C(C)(C)C)C[C@H]5C)nc4)cc3OC(F)(F)F)cc2)c[nH]1)C(C)C", "note": "[Example 15-5]", "EC50": "< 0.1"}
{"smiles": "COC(=O)N[C@H](C(=O)N1C[C@@H](N(C)C(C)C)C[C@H]1c1nc(-c2ccc(-c3cc(Cl)c(NC(=O)c4ccc(N5CCN(C(=O)C(C)(C)C)C[C@H]5C)nc4)cc3OC(F)(F)F)cc2)c[nH]1)C(C)C", "note": "[Example 15-7]", "EC50": "< 0.1"}
{"smiles": "COC(=O)N[C@H](C(=O)N1C[C@@H](N(C)CCN)C[C@H]1c1nc(-c2ccc(-c3cc(Cl)c(NC(=O)c4ccc(N5CCN(C(=O)C(C)(C)C)C[C@H]5C)nc4)cc3OC(F)(F)F)cc2)c[nH]1)C(C)C", "note": "[Example 15-8]", "EC50": "0.1 to 1"}
{"smiles": "COC(=O)N[C@H](C(=O)N1C[C@@H](N2CCCC2)C[C@H]1c1nc(-c2ccc(-c3cc(Cl)c(NC(=O)c4ccc(N5CCN(C(=O)C(C)(C)C)C[C@H]5C)nc4)cc3OC(F)(F)F)cc2)c[nH]1)C(C)C", "note": "[Example 15-9]", "EC50": "< 0.1"}
{"smiles": "COC(=O)N[C@H](C(=O)N1C[C@@H](C(N)=O)C[C@H]1c1nc(-c2ccc(-c3cc(Cl)c(NC(=O)c4ccc(N5CCN(C(=O)OC(C)(C)C)C[C@H]5C)nc4)cc3OC(F)(F)F)cc2)c[nH]1)C(C)C", "note": "[Example 15-10]", "EC50": "1 to 10"}
{"smiles": "COC[C@H]1C[C@@H](c2nc(-c3ccc(-c4cc(Cl)c(NC(=O)c5ccc(N6CCN(C(=O)C(C)(C)C)C[C@H]6C)nc5)cc4OC(F)(F)F)cc3)c[nH]2)N(C(=O)[C@@H](NC(=O)OC)C(C)C)C1", "note": "[Example 15-13]", "EC50": "< 0.1"}
